The supplement of paper PMC10307832

Key:
Experiment in all cases: relative viability (nuclei count vs DMSO), 5 days (fraction); higher = more cells survive
R406 + AZD7762 = compound: COc1cc(Nc2ncc(F)c(Nc3ccc4c(n3)NC(=O)C(C)(C)O4)n2)cc(OC)c1OC [R406] + NC(=O)Nc1cc(-c2cccc(F)c2)sc1C(=O)N[C@H]1CCCNC1 [AZD7762] (partner 0.2 µM)
Outline: (§1)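 Values are medians from duplicate plates. Each reflects relative viability, defined as the nuclei count of treated wells over that of vehicle wells. Lung cancer cell lines in 1536-well plates were pin-tool dosed one day after seeding with one drug alone or with a fixed anchor-drug dose plus five library-drug doses (not always all listed) in √10 steps, then fixed, stained and imaged at 4× after 5 days.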

Daporinad + Phenformin = compound: O=C(/C=C/c1cccnc1)NCCCCC1CCN(C(=O)c2ccccc2)CC1 [Daporinad] + N=C(N)NC(=N)NCCc1ccccc1 [Phenformin] (partner 250 µM)
Outline: as §1

R406 + Pictilisib = compound: COc1cc(Nc2ncc(F)c(Nc3ccc4c(n3)NC(=O)C(C)(C)O4)n2)cc(OC)c1OC [R406] + CS(=O)(=O)N1CCN(Cc2cc3nc(-c4cccc5[nH]ncc45)nc(N4CCOCC4)c3s2)CC1 [Pictilisib] (partner 1 µM)
Outline: as §1

R406 + Trametinib = compound: COc1cc(Nc2ncc(F)c(Nc3ccc4c(n3)NC(=O)C(C)(C)O4)n2)cc(OC)c1OC [R406] + CC(=O)Nc1cccc(-n2c(=O)n(C3CC3)c(=O)c3c(Nc4ccc(I)cc4F)n(C)c(=O)c(C)c32)c1 [Trametinib] (partner 0.02 µM)
Outline: as §1

Cell Line: NCI-H2347
- relative viability (R406 + AZD7762; first compound 0.08 µM): 0.785
- relative viability (R406 + AZD7762; first compound 0.253 µM): 0.81
- relative viability (R406 + AZD7762; first compound 0.8 µM): 0.776
- relative viability (R406 + AZD7762; first compound 2.53 µM): 0.422
- relative viability (R406 + AZD7762; first compound 8 µM): 0.529
- relative viability (Daporinad + Phenformin; first compound 0.0005 µM): 0.53
- relative viability (Daporinad + Phenformin; first compound 0.001581 µM): 0.319
- relative viability (Daporinad + Phenformin; first compound 0.005 µM): 0.447
- relative viability (Daporinad + Phenformin; first compound 0.01581 µM): 0.379
- relative viability (R406 + Pictilisib; first compound 0.08 µM): 0.53
- relative viability (R406 + Pictilisib; first compound 0.253 µM): 0.952
- relative viability (R406 + Pictilisib; first compound 0.8 µM): 0.605
- relative viability (R406 + Pictilisib; first compound 2.53 µM): 0.624
- relative viability (R406 + Pictilisib; first compound 8 µM): 0.28
- relative viability (R406 + Trametinib; first compound 0.08 µM): 0.304
- relative viability (R406 + Trametinib; first compound 0.253 µM): 0.285
- relative viability (R406 + Trametinib; first compound 0.8 µM): 0.282
- relative viability (R406 + Trametinib; first compound 2.53 µM): 0.244
- relative viability (R406 + Trametinib; first compound 8 µM): 0.255

Cell Line: NCI-H1355
- relative viability (R406 + AZD7762; first compound 0.08 µM): 0.799
- relative viability (R406 + AZD7762; first compound 0.253 µM): 0.758
- relative viability (R406 + AZD7762; first compound 0.8 µM): 0.747
- relative viability (R406 + AZD7762; first compound 2.53 µM): 0.555
- relative viability (R406 + AZD7762; first compound 8 µM): 0.581
- relative viability (Daporinad + Phenformin; first compound 0.0005 µM): 0.454
- relative viability (Daporinad + Phenformin; first compound 0.001581 µM): 0.506
- relative viability (Daporinad + Phenformin; first compound 0.005 µM): 0.542
- relative viability (Daporinad + Phenformin; first compound 0.01581 µM): 0.508
- relative viability (R406 + Pictilisib; first compound 0.08 µM): 0.521
- relative viability (R406 + Pictilisib; first compound 0.253 µM): 0.571
- relative viability (R406 + Pictilisib; first compound 0.8 µM): 0.557
- relative viability (R406 + Pictilisib; first compound 2.53 µM): 0.211
- relative viability (R406 + Pictilisib; first compound 8 µM): 0.313
- relative viability (R406 + Trametinib; first compound 0.08 µM): 0.456
- relative viability (R406 + Trametinib; first compound 0.253 µM): 0.45
- relative viability (R406 + Trametinib; first compound 0.8 µM): 0.406
- relative viability (R406 + Trametinib; first compound 2.53 µM): 0.384
- relative viability (R406 + Trametinib; first compound 8 µM): 0.327

Cell Line: NCI-H1944
- relative viability (R406 + AZD7762; first compound 0.08 µM): 0.484
- relative viability (R406 + AZD7762; first compound 0.253 µM): 0.449
- relative viability (R406 + AZD7762; first compound 0.8 µM): 0.523
- relative viability (R406 + AZD7762; first compound 2.53 µM): 0.388
- relative viability (R406 + AZD7762; first compound 8 µM): 0.349
- relative viability (Daporinad + Phenformin; first compound 0.0005 µM): 0.206
- relative viability (Daporinad + Phenformin; first compound 0.001581 µM): 0.219
- relative viability (Daporinad + Phenformin; first compound 0.005 µM): 0.214
- relative viability (Daporinad + Phenformin; first compound 0.01581 µM): 0.241
- relative viability (R406 + Pictilisib; first compound 0.08 µM): 0.316
- relative viability (R406 + Pictilisib; first compound 0.253 µM): 0.344
- relative viability (R406 + Pictilisib; first compound 0.8 µM): 0.348
- relative viability (R406 + Pictilisib; first compound 2.53 µM): 0.265
- relative viability (R406 + Pictilisib; first compound 8 µM): 0.279
- relative viability (R406 + Trametinib; first compound 0.08 µM): 0.401
- relative viability (R406 + Trametinib; first compound 0.253 µM): 0.453
- relative viability (R406 + Trametinib; first compound 0.8 µM): 0.364
- relative viability (R406 + Trametinib; first compound 2.53 µM): 0.385
- relative viability (R406 + Trametinib; first compound 8 µM): 0.319

Cell Line: RERF-LC-KJ
- relative viability (R406 + AZD7762; first compound 0.08 µM): 1
- relative viability (R406 + AZD7762; first compound 0.253 µM): 1.23
- relative viability (R406 + AZD7762; first compound 0.8 µM): 1.29
- relative viability (R406 + AZD7762; first compound 2.53 µM): 0.692
- relative viability (R406 + AZD7762; first compound 8 µM): 0.988
- relative viability (Daporinad + Phenformin; first compound 0.0005 µM): 0.376
- relative viability (Daporinad + Phenformin; first compound 0.001581 µM): 0.443
- relative viability (Daporinad + Phenformin; first compound 0.005 µM): 0.537
- relative viability (Daporinad + Phenformin; first compound 0.01581 µM): 0.477
- relative viability (R406 + Pictilisib; first compound 0.08 µM): 0.749
- relative viability (R406 + Pictilisib; first compound 0.253 µM): 0.488
- relative viability (R406 + Pictilisib; first compound 0.8 µM): 0.64
- relative viability (R406 + Pictilisib; first compound 2.53 µM): 0.43
- relative viability (R406 + Pictilisib; first compound 8 µM): 0.502
- relative viability (R406 + Trametinib; first compound 0.08 µM): 0.833
- relative viability (R406 + Trametinib; first compound 0.253 µM): 0.918
- relative viability (R406 + Trametinib; first compound 0.8 µM): 1
- relative viability (R406 + Trametinib; first compound 2.53 µM): 0.753
- relative viability (R406 + Trametinib; first compound 8 µM): 0.715
